{"source": "patent US7312322B1", "about": "“Genetic sequences encoding steroid and juvenile hormone receptor polypeptides and insecticidal modalities therefor” (priority 1998, dated 2007)", "system": "in vitro-translated complex of the M. persicae EcR and USP polypeptides", "experiment": "Tritiated ponasterone A filter binding assay with in vitro-translated polypeptides", "set-up": "species or system Myzus persicae", "conditions": "tritiated ponasterone A 2.2 nM, 90 min, room temperature; complex versus USP or EcR polypeptide alone (FIG. 4)", "method": "In vitro-translated Myzus persicae EcR (MpEcR) polypeptide and an in vitro-translated M. persicae USP (MpUSP) polypeptide were produced labelled with [^35S]Methionine, using the Promega TNT-Coupled Reticulocyte Lysate System. Each batch of lysate contained 100-200 mg/ml of endogenous proteins (using BSA as a standard). The products were analysed by SDS-PAGE and radioautography. The results confirmed that the cloned cDNAs encode proteins of the sizes predicted from the length of putative open reading frames of the cDNAs present in plasmids pMpEcR and pMPUSP. The yields of EcR and USP were similar as assessed by SDS-PAGE.\nIn functional assays, DNA plasmids pMpEcR (AGAL Accession No. NM99/04567; […]) or pMpUSP (AGAL Accession No. NM99/04568; […]), which have been constructed using the vector pBK-CMV, and […] of appropriate TNT RNA Polymerase were added to […] of reaction mix which contained TNT Lysate, TNT Reaction Buffer, amino acid mixture, Rnasin Ribonuclease Inhibitor and nuclease-free water in volumes specified in the manufactureFS protocol. […]\nAfter thawing the translation products, […] aliquots of the reaction mixture containing M. persicae EcR and USP polypeptides were combined to promote formation of the EcR/USP complex. […] The receptor bound ligand was quantified using a TriCarb 2100TR scintillation counter.", "data": [{"compound": "CC(C)CC[C@@H](O)[C@](C)(O)[C@H]1CC[C@@]2(O)C3=CC(=O)[C@@H]4C[C@@H](O)[C@@H](O)C[C@]4(C)[C@H]3CC[C@]12C", "note": "[PNA, ponasterone A]", "values": [{"measurement": "amount of ligand bound to EcR/USP complex", "value": "significantly higher amounts"}]}]}
